Data published in patent publication US20220409617A1, “Drug Formulations and Methods of Treatment for Metabolic Disorders” (The Regents of the University of California, priority 2019, published 2022).

Tests used:
3T3-L1 adipocytes = assay: Insulin-stimulated 2-deoxyglucose uptake; format: cell-based, mouse; settings: 3 h, 893 10 μM, MK-2206 2 μM
Description: (§1) 3T3-L1 cells were maintained in DMEM with 10% FBS and 1% penicillin-streptomycin until induced to differentiate. 3T3-L1 pre-adipocytes were differentiated as described in (M. P. Valley, et al., Anal. Biochem. 505: 43-50, 2016, the disclosure of which is incorporated herein by reference) with slight modifications. Briefly, pre-adipocytes were grown to confluence. After 2 d, cells were induced with maintenance media containing 500 μM IBMX (15879, Sigma-Aldrich, St. Louis, Mo.), 1 μM dexamethasone (D4902, Sigma-Aldrich), 5 μg/mL bovine insulin (10516, Sigma-Aldrich), and 5 μM troglitazone (50-115-0786, ApexBio). Media was changed every 2-3 d for 7 d. On day 7 post-induction, media was changed to maintenance media+5 μg/mL bovine insulin. On day 9 post-induction, media was changed to maintenance media. Mature adipocytes were used 12-14 d post-induction for all experiments. LSL-KrasG12D mouse embryonic fibroblasts (MEFs) with and without Cre-mediated deletion of the STOP cassette were obtained from David Tuveson (Cold Spring Harbor Laboratory, Cold Spring Harbor N.Y., USA) in 2000. p53^flox/flox MEFs were derived in house (2015) from C57BL/6 mice using standard techniques and immortalized by transient expression of Cre recombinase and deletion of p53. MEFs were cultured and maintained in DMEM with 10% FBS and 1% penicillin-streptomycin. […]

DRP1 = DRP1 recruitment to mitochondria (DRP1/citrate synthase co-localization) and DRP1 western blot; format: cell-based, mouse; settings: MEFs; 893 5 μM or YM201636 800 nM 3 h, then palmitate 250 μM 3 h
Description: Mature adipocytes were serum starved for 16 h then treated with vehicle, ceramide (50 or 100 μM), or sphingolipid-like compound 893 (5 or 10 μM) in serum-free media supplemented with 0.2% fatty-acid free BSA for 3 h after which 100 nM insulin was added for 15 min. To determine total DRP1 protein levels, 100,000 MEFs were seeded into a 6-well plate for 16 h, pre-treated for 3 h with vehicle or sphingolipid-like compound 893 (5 μM) followed by a 3 h incubation in 1% BSA+ethanol or BSA-palmitate (250 μM). Cells were washed once with cold PBS, then lysed in cold RIPA buffer (140 mM NaCl, 10 mM Tris pH 8.0, 1% Triton X-100, 0.1% SDS, 1% sodium deoxycholate) with cOmplete™ protease inhibitor (Cat no. 11697498001, Millipore Sigma, St. Louis, Mo.) and phosSTOP™ phosphatase inhibitor (Cat no. 4906837001, Millipore Sigma). Samples were incubated on ice for 10 min and insoluble material removed by centrifugation (9000×g for 10 min at 4° C.). Protein content was quantified in the supernatant using the Pierce™ BCA Protein Assay Kit (Thermo-Fisher Scientific, Waltham, Mass.). Equal amounts of protein were prepared in NuPAGE® LDS Sample Buffer (NP0007, Invitrogen) containing 50 mM DTT, and heated at 70° C. for 10 min. Proteins were resolved on a NuPAGE® 4-12% Bis-Tris protein gel (NP0336, Invitrogen, Carlsbad, Calif.) and subsequently transferred to a nitrocellulose membrane. Membranes were blocked in 5% BSA in TBST for 1 h, then probed with primary antibodies overnight at 4° C. […] Band intensity was quantified using Image Studio Lite V5.2 software (Li-COR).
MEFs were washed twice with PBS and fixed with 4% paraformaldehyde for 10 min at RT. […] NADH/NADPH autofluorescence was detected with 740 nm excitation and 450±50 nm detectors using a Mai Tai two-photon laser. Fluorescence microscopy was performed on a Zeiss LSM 780 confocal using a 63× oil objective with a […] numerical aperture (NA) or using a Nikon TE2000-S inverted epifluorescence microscope with a 100× oil objective (1.3 NA) and a Photometrics CoolSNAP ES2 monochrome CCD camera. […]

AKT = assay: Insulin-stimulated AKT activation, western blot; format: cell-based, mouse; settings: 3T3-L1 adipocytes; 3 h pre-treatment, C2-ceramide 50 or 100 μM, 893 5 or 10 μM; insulin 100 nM 15 min
Description: as §1, with “experiments.” for “experiments. LSL-KrasG12D mouse embryonic fibroblasts (MEFs) with and without Cre-mediated deletion of the STOP cassette were obtained from David Tuveson (Cold Spring Harbor Laboratory, Cold Spring Harbor N.Y., USA) in 2000. p53^flox/flox MEFs were derived in house (2015) from C57BL/6 mice using standard techniques and immortalized by transient expression of Cre recombinase and deletion of p53. MEFs were cultured and maintained in DMEM with 10% FBS and 1% penicillin-streptomycin.”
Mature adipocytes were serum starved for 16 h then treated with vehicle, ceramide (50 or 100 μM), or sphingolipid-like compound 893 (5 or 10 μM) in serum-free media supplemented with 0.2% fatty-acid free BSA for 3 h after which 100 nM insulin was added for 15 min. […] Protein content was quantified in the supernatant using the Pierce™ BCA Protein Assay Kit (Thermo-Fisher Scientific, Waltham, Mass.). […]

[1] = Home-cage feeding study with suboptimal leptin (leptin sensitization); format: in vivo, mouse; settings: lean chow-fed 18 week old mice; leptin 2 mg/kg i.p. or 893 120 mg/kg by gavage
From the text: Leptin is secreted by adipocytes in proportion to their triglyceride content, signaling to the CNS when peripheral energy stores are full and food consumption should decrease. In HFD-fed mice, chronic increases in adiposity lead to elevations in circulating leptin with no accompanying decrease in food intake, a state that has been termed leptin-resistant. Reducing leptin levels in the blood restores leptin signaling in the hypothalamus (S. Zhao, et al., 2019, cited supra). Thus, the sphingolipid-like compound 893 should function as a leptin-sensitizing agent. To test this model, 18 week old lean, male C57BL/6J mice were treated intraperitoneally with a suboptimal dose of recombinant leptin at ZT8.5 and food intake and body weight measured over the next 18 h. […] In summary, the reduction in food intake in sphingolipid-like compound 893-treated mice is consistent with the reversal of mitochondrial fragmentation in the hypothalamus and likely due in part to the re-sensitization of anorexigenic POMG neurons to leptin when plasma leptin levels are decreased.
Mice were singly housed and allowed to acclimate for 72 h before food intake was monitored. Food consumption was determined by monitoring the weight of food in the hopper. Initial food and body weight measurements were taken at ZT9 and final measurements were taken 16 h later to capture the active period where most consumption occurred. Home cage feeding studies were performed with C57BL/6J mice maintained on a HFD for 24 weeks (33 weeks of age), or ob/ob mice at 8 weeks of age. Mice received vehicle or 120 mg/kg sphingolipid-like compound 893 by gavage at ZT8.5. For experiments involving leptin, 18 week old, SD fed (16% kcal from fat, 2020×, Envigo) C57BL/6J mice received vehicle or 120 mg/kg sphingolipid-like compound 893 by gavage at ZT8.5. […] One ob/ob mouse died during Echo MRI for unknown reasons after 6 d of treatment with sphingolipid-like compound 893; data from this mouse was analyzed prior to death.

Molecule: NC1(c2ccc(-c3nc4ccn5c(=O)[nH]nc5c4cc3-c3ccccc3)cc2)CCC1 [MK-2206, reference compound]
- Insulin-stimulated glucose uptake (3T3-L1 adipocytes): impeded insulin-stimulated glucose uptake in adipocytes

Molecule: Nc1ccc(C(=O)Nc2cccc(-c3nc(N4CCOCC4)c4oc5ncccc5c4n3)c2)cn1 [YM201636, reference compound]
- DRP1 recruitment to mitochondria in response to palmitate (DRP1): prevented DRP1 recruitment

Molecule: CCCCCCCCCCCCC/C=C/[C@@H](O)[C@H](CO)NC(C)=O [ceramide, C2-ceramide, reference compound]
- Insulin-stimulated AKT activation (AKT): interfered with insulin-stimulated AKT activation

B1: leptin: recombinant mouse leptin (498-OB, R&D Systems) (protein, UniProt P41160 22-167, looked up)
Leptin: VPIQKVQDDTKTLIKTIVTRINDISHTQSVSAKQRVTGLDFIPGLHPILSLSKMDQTLAVYQQVLTSLPSQNVLQIANDLENLRDLLHLLAFSKSCSLPQTSGLQKPESLDGVLEASLYSTEVVALSRLQGSLQDILQQLDVSPEC
- Food intake and body weight over 18 h, single agent [1]: not sufficient to decrease food intake or body weight
